Assay results reported in patent US8188085B2, “Antifungal agents” (Merck Sharp & Dohme Corp., priority 2008, dated 2012).

The compounds below were run against glucan synthase (GS) prepared from Candida albicans MY1055 (Candida albicans, UniProt O13428) (assay: Glucan synthase inhibition (polymerization assay, 96-well)). Details: GS from C. albicans MY1055; 60 min incubation at 22° C.; read-out: Candida Albicans GS IC50 (converted).
Type: biochemical
How it was run: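 Partially purified glucan synthase from C. albicans MY1055 membranes incorporated 0.5 mM ³H-UDPG with 25 μM GTP-γ-S, HEPES pH 7.5, over 60 min at 22 °C. TCA-precipitated glucan was counted by scintillation. IC50 (ng/mL) came from sigmoidal fits of duplicate 3-fold dilution series.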

glucan synthase (GS) prepared from Candida albicans MY1055, sequence (O13428 1-1897): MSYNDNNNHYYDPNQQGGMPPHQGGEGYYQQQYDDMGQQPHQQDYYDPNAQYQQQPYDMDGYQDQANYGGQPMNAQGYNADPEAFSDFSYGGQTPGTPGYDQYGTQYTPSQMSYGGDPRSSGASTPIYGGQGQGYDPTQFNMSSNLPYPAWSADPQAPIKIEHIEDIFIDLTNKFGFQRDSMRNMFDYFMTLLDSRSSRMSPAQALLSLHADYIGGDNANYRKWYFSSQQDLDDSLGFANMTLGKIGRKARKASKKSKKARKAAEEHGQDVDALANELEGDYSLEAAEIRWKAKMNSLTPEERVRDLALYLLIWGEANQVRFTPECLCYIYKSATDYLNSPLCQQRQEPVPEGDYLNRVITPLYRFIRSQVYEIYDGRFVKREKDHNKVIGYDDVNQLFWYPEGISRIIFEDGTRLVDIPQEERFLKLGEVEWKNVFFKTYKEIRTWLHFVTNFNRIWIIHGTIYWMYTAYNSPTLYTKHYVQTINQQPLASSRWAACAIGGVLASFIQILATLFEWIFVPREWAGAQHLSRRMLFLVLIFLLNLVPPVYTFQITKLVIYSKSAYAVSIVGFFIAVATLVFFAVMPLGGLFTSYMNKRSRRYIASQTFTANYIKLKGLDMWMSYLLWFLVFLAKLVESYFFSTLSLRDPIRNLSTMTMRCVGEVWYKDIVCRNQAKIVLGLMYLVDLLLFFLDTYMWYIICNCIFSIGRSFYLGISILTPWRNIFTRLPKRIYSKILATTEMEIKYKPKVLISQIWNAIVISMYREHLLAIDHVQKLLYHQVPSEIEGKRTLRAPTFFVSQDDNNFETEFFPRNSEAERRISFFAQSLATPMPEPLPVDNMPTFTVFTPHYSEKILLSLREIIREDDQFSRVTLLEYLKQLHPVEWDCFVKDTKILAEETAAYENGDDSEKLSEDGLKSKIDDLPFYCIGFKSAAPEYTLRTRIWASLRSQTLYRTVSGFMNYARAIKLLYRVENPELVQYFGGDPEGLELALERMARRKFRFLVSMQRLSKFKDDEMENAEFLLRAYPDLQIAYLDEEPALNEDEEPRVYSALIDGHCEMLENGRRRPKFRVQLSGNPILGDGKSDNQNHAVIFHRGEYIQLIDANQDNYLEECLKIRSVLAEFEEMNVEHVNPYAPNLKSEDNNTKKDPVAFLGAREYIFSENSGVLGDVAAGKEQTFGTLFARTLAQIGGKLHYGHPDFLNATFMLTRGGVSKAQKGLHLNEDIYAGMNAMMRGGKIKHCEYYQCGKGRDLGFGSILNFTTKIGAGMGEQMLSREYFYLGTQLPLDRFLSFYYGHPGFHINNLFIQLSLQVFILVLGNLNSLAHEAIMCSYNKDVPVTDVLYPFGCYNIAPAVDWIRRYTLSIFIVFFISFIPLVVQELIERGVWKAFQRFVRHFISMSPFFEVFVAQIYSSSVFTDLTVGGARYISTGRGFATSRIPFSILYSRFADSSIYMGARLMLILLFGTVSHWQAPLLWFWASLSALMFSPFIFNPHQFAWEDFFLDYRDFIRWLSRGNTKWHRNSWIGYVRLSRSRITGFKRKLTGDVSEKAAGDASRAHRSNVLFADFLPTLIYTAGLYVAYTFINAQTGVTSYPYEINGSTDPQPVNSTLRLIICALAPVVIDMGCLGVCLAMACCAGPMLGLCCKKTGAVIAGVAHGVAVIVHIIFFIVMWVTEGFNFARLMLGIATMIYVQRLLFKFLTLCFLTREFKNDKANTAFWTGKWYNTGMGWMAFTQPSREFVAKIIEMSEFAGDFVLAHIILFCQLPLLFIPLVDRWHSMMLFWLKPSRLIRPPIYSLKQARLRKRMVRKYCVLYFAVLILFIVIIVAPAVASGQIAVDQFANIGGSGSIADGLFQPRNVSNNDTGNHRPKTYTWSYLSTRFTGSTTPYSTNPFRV

`CCS(=O)(=O)c1ncnn1[C@@H]1C[C@@]23COC[C@](C)([C@@H]2CC[C@H]2C3=CC[C@@]3(C)[C@H](C(=O)O)[C@@](C)([C@H](C)C(C)C)CC[C@]23C)[C@H]1OC[C@](C)(N)C(C)C` [Example 140, (1S,4aR,6aS,7R,8R,10aR,10bR,12aR,14R,15R)-15-[[(2R)-2-amino-2,3-dimethylbutyl]oxy]-8-[(1R)-1,2-dimethylpropyl]-14-[5-(ethylsulfonyl)-1H-1,2,4-triazol-1-yl]-1,6,6a,7,8,9,10,10a,10b,11,12,12a-dodecahydro-1,6a,8,10a-tetramethyl-4H-1,4a-propano-2H-phenanthro[1,2-c]pyran-7-carboxylic acid] and `CC(C)[C@@H](C)[C@@]1(C)CC[C@]2(C)[C@H]3CC[C@@H]4[C@@]5(COC[C@@]4(C)[C@@H](OC[C@](C)(N)C(C)C)[C@H](n4ncnc4C4=NCCN4)C5)C3=CC[C@@]2(C)[C@@H]1C(=O)O` [Example 128, (1S,4aR,6aS,7R,8R,10aR,10bR,12aR,14R,15R)-15-[[(2R)-2-amino-2,3-dimethylbutyl]oxy]-14-[5-(4,5-dihydro-1H-imidazol-2-yl)-1H-1,2,4-triazol-1-yl]-8-[(1R)-1,2-dimethylpropyl]-1,6,6a,7,8,9,10,10a,10b,11,12,12a-dodecahydro-1,6a,8,10a-tetramethyl-4H-1,4a-propano-2H-phenanthro[1,2-c]pyran-7-carboxylic acid] are within 1.5-fold of each other in IC50: 6.84 nM for the first, 8.49 nM for the second.

Going from `CC(C)[C@@H](C)[C@@]1(C)CC[C@]2(C)[C@H]3CC[C@@H]4[C@@]5(COC[C@@]4(C)[C@@H](OC[C@](C)(N)C(C)(C)C)[C@H](n4ncnc4-c4cccc(C(N)=O)c4)C5)C3=CC[C@@]2(C)[C@@H]1C(=O)O` [Example 228, (1S,4aR,6aS,7R,8R,10aR,10bR,12aR,14R,15R)-14-[5-[3-(aminocarbonyl)phenyl]-1H-1,2,4-triazol-1-yl]-15-[[(2R)-2-amino-2,3,3-trimethylbutyl]oxy]-8-[(1R)-1,2-dimethylpropyl]-1,6,6a,7,8,9,10,10a,10b,11,12,12a-dodecahydro-1,6a,8,10a-tetramethyl-4H-1,4a-propano-2H-phenanthro[1,2-c]pyran-7-carboxylic acid] to `CN[C@@](C)(CO[C@H]1[C@H](n2ncnc2C(=O)NC(C)C)C[C@@]23COC[C@]1(C)[C@@H]2CC[C@H]1C3=CC[C@@]2(C)[C@H](C(=O)O)[C@@](C)([C@H](C)C(C)C)CC[C@]12C)C(C)C` [Example 38, (1S,4aR,6aS,7R,8R,10aR,10bR,12aR,14R,15R)-15-[[(2R)-2,3-dimethyl-2-(methylamino)butyl]oxy]-8-[(1R)-1,2-dimethylpropyl]-14-[5-[[(1-methylethyl)amino]carbonyl]-1H-1,2,4-triazol-1-yl]-1,6,6a,7,8,9,10,10a,10b,11,12,12a-dodecahydro-1,6a,8,10a-tetramethyl-4H-1,4a-propano-2H-phenanthro[1,2-c]pyran-7-carboxylic acid], the IC50 rises from 7.77 nM to 17.6 nM (2.3-fold).

In the case of `CN[C@@](C)(CO[C@H]1[C@H](n2ncnc2C(=O)NC2CC2)C[C@@]23COC[C@]1(C)[C@@H]2CC[C@H]1C3=CC[C@@]2(C)[C@H](C(=O)O)[C@@](C)([C@H](C)C(C)C)CC[C@]12C)C(C)C` [Example 64, (1S,4aR,6aS,7R,8R,10aR,10bR,12aR,14R,15R)-14-[5-[(cyclopropylamino)carbonyl]-1H-1,2,4-triazol-1-yl]-15-[[(2R)-2,3-dimethyl-2-(methylamino)butyl]oxy]-8-[(1R)-1,2-dimethylpropyl]-1,6,6a,7,8,9,10,10a,10b,11,12,12a-dodecahydro-1,6a,8,10a-tetramethyl-4H-1,4a-propano-2H-phenanthro[1,2-c]pyran-7-carboxylic acid], the IC50 is reported as 13.6 nM.
